Results from US20200017467A1, “NOVEL TRIAZOLE DERIVATIVES” (BAYER CROPSCIENCE AKTIENGESELLSCHAFT, priority 2017, published 2020).

Legend:
[1] = Log P by HPLC on reversed phase columns (EEC directive 79/831 Annex V.A8); type: physicochemical; settings: reversed phase HPLC columns; method [a]: LC-UV, acidic range, 0.1% formic acid in water and acetonitrile; compounds of formula (I)
Protocol: Log P values: Measurement of Log P values was performed according to EEC directive 79/831 Annex V.A8 by HPLC (High Performance Liquid Chromatography) on reversed phase columns with the following methods: • ^[a] Log P value is determined by measurement of LC-UV, in an acidic range, with 0.1% formic acid in water and acetonitrile as eluent (linear gradient from 10% acetonitrile to 95% acetonitrile). • ^[b] Log P value is determined by measurement of LC-UV, in a neutral range, with 0.001 molar ammonium acetate solution in water and acetonitrile as eluent (linear gradient from 10% acetonitrile to 95% acetonitrile). • ^[c] Log P value is determined by measurement of LC-UV, in an acidic range, with 0.1% phosphoric acid and acetonitrile as eluent (linear gradient from 10% acetonitrile to 95% acetonitrile). If more than one Log P value is available within the same method, all the values are given and separated by “+”. Calibration was done with straight-chain alkan2-ones (with 3 to 16 carbon atoms) with known Log P values (measurement of Log P values using retention times with linear interpolation between successive alkanones). Lambda-max-values were determined using UV-spectra from 200 nm to 400 nm and the peak values of the chromatographic signals.

[2] = system: Blumeria graminis fsp. hordei; assay: In vivo preventive Blumeria test (barley); settings: 168 h, 500 ppm of active ingredient, preventive spray, evaluated 7 days after inoculation, read-out: efficacy
Protocol: Example E: In Vivo Preventive Blumeria Test (Barlev) [table] To produce a suitable preparation of active compound, 1 part by weight of active compound or active compound combination was mixed with the stated amounts of solvent and emulsifier, and the concentrate was diluted with water to the desired concentration. To test for preventive activity, young plants were sprayed with the preparation of active compound or active compound combination at the stated rate of application. After the spray coating had been dried, the plants were dusted with spores of Blumeria graminis fsp. hordei. The plants were placed in the greenhouse at a temperature of approximately 18° C. and a relative atmospheric humidity of approximately 80% to promote the development of mildew pustules. The test was evaluated 7 days after the inoculation. 0% means an efficacy which corresponds to that of the untreated control, while an efficacy of 100% means that no disease is observed.

Septoria tritici [3] = assay: Example F-A: in vivo preventive Septoria tritici test (wheat); settings: Zymoseptoria tritici, 504 h, evaluated 21 days after inoculation, read-out: Efficacy in % Example F-A
Protocol: Example F: In Vivo Septoria tritici Test (Wheat); Comparison of Pyridinyloxy-Pyridyl Compounds According to the Invention Vs. Compounds Known from WO-A 2010/146116 [table] To produce a suitable preparation of active compound, 1 part by weight of active compound or active compound combination is mixed with the stated amounts of solvent and emulsifier, and the concentrate is diluted with water to the desired concentration. Example F-A: In Vivo Preventive Septoria tritici Test (Wheat) To test for preventive activity, young plants are sprayed with the preparation of active compound or active compound combination at the stated rate of application. After the spray coating has been dried, the plants are sprayed with a spore suspension of Septoria tritici. The plants remain for 48 hours in an incubation cabinet at approximately 20° C. and a relative atmospheric humidity of approximately 100% and afterwards for 60 hours at approximately 15° C. in a translucent incubation cabinet at a relative atmospheric humidity of approximately 100%. The plants are placed in the greenhouse at a temperature of approximately 15° C. and a relative atmospheric humidity of approximately 80%. The test is evaluated 21 days after the inoculation. 0% means an efficacy which corresponds to that of the untreated control, while an efficacy of 100% means that no disease is observed.

Septoria tritici [4] = assay: In vivo preventive test on Septoria tritici (leaf spot on wheat); settings: Zymoseptoria tritici, 576 h, 500 ppm of active ingredient, preventive spray, evaluated 24 days after inoculation, read-out: efficacy
Protocol: Example B: In Vivo Preventive Test on Septoria tritici (Leaf Spot on Wheat) [table] The active ingredients were made soluble and homogenized in a mixture of dimethyl sulfoxide/acetone//Tween® 80 and then diluted in water to the desired concentration. Young plants of wheat were treated by spraying the active ingredient prepared as described above. Control plants were treated only with an aqueous solution of acetone/dimethyl sulfoxide/Tween® 80. After 24 hours, the plants were contaminated by spraying the leaves with an aqueous suspension of Septoria tritici spores. The contaminated wheat plants were incubated for 72 hours at 18° C. and at 100% relative humidity and then for 21 days at 20° C. and at 90% relative humidity. The test was evaluated 24 days after the inoculation. 0% means an efficacy which corresponds to that of the control plants while an efficacy of 100% means that no disease was observed.

Puccinia recondita = assay: In vivo preventive test on Puccinia recondita (brown rust on wheat); settings: 264 h, 500 ppm of active ingredient, preventive spray, evaluated 11 days after inoculation, read-out: efficacy
Protocol: (§1) Example A: In Vivo Preventive Test on Puccinia recondita (Brown Rust on Wheat) [table] The active ingredients were made soluble and homogenized in a mixture of dimethyl sulfoxide/acetone//Tween® 80 and then diluted in water to the desired concentration. Young plants of wheat were treated by spraying the active ingredient prepared as described above. Control plants were treated only with an aqueous solution of acetone/dimethyl sulfoxide/Tween® 80. After 24 hours, the plants were contaminated by spraying the leaves with an aqueous suspension of Puccinia recondita spores. The contaminated wheat plants were incubated for 24 hours at 20° C. and at 100% relative humidity and then for 10 days at 20° C. and at 70-80% relative humidity. The test was evaluated 11 days after the inoculation. 0% means an efficacy which corresponds to that of the control plants while an efficacy of 100% means that no disease was observed.

Uromyces appendiculatus = assay: In vivo preventive test on Uromyces appendiculatus (bean rust); settings: 264 h, 500 ppm of active ingredient, preventive spray, evaluated 11 days after inoculation, read-out: efficacy
Protocol: as §1, with “D:” for “A:”, “Uromyces appendiculatus (Bean Rust)” for “Puccinia recondita (Brown Rust on Wheat)”, “bean” for “wheat”, “Uromyces appendiculatus” for “Puccinia recondita”

| SMILES | chromatographic logP [1] | pest or weed control at 500 ppm [2] | pest or weed control at 500 ppm (Septoria tritici [3]) | pest or weed control at 500 ppm (Septoria tritici [4]) | pest or weed control at 500 ppm (Puccinia recondita) | pest or weed control at 500 ppm (Uromyces appendiculatus) |
| --- | --- | --- | --- | --- | --- | --- |
| CC(O)(Cn1cncn1)c1ccc(Oc2ccc(Br)nc2)nc1C(F)(F)F (centres unmarked) [I-01, 2-[6-[(6-bromo-3-pyridyl)oxy]-2-(trifluoromethyl)-3-pyridyl]-1-(1,2,4-triazol-1-yl)propan-2-ol] | 2.25 | 90 to 100% | 100% | 90 to 100% | 90 to 100% | 80 to 89% |
| CC(O)(Cn1cncn1)c1ccc(Oc2ccc(C(F)(F)F)nc2)nc1C(F)(F)F (centres unmarked) [I-02, 1-(1,2,4-triazol-1-yl)-2-[2-(trifluoromethyl)-6-[[6-(trifluoromethyl)-3-pyridyl]oxy]-3-pyridyl]propan-2-ol] | 2.56 | 90 to 100% | 100% | 90 to 100% | 80 to 89% | 90 to 100% |
| CC(O)(Cn1cncn1)c1cnc(Oc2ccc(C(F)(F)F)nc2)cc1C(F)(F)F (centres unmarked) [I-04] | 2.53 | 90 to 100% | 100% | 90 to 100% | 90 to 100% | 90 to 100% |
| CC(O)(Cn1cncn1)c1ccc(Oc2ccc(Cl)nc2)nc1C(F)(F)F (centres unmarked) [I-05] | 2.21 | 90 to 100% | 100% | 90 to 100% | 80 to 89% | 90 to 100% |
| CC(O)(Cn1cncn1)c1cnc(Oc2ccc(Cl)nc2)cc1C(F)(F)F (centres unmarked) [I-06, 2-[6-[(6-chloro-3-pyridyl)oxy]-4-(trifluoromethyl)-3-pyridyl]-1-(1,2,4-triazol-1-yl)propan-2-ol] | 2.18 | 90 to 100% | 100% | 90 to 100% | 90 to 100% | 90 to 100% |

Now from value to compound, other results behind:

| chromatographic logP [1] | SMILES | pest or weed control at 500 ppm [2] | pest or weed control at 500 ppm (Septoria tritici [3]) | pest or weed control at 500 ppm (Septoria tritici [4]) | pest or weed control at 500 ppm (Puccinia recondita) | pest or weed control at 500 ppm (Uromyces appendiculatus) |
| --- | --- | --- | --- | --- | --- | --- |
| 2.3 | CC(O)(Cn1cncn1)c1cnc(Oc2ccc(Br)nc2)cc1C(F)(F)F (centres unmarked) [I-07] | 90 to 100% | 100% | 90 to 100% | 80 to 89% | 70 to 79% |
| 2.2 | OC(Cn1cncn1)c1ccc(Oc2ccc(C(F)(F)F)nc2)nc1C(F)(F)F (centres unmarked) [I-09] | 90 to 100% | 100% | 90 to 100% | 90 to 100% | 90 to 100% |
| 2.13 | OC(Cn1cncn1)c1cnc(Oc2ccc(Br)nc2)cc1C(F)(F)F (centres unmarked) [I-13] | 90 to 100% | 100% | 90 to 100% | 90 to 100% | – |
